US20080255238A1, “COMPOSITION CONTAINING A THIOUREA DERIVATIVE FOR PREVENTING OR TREATING PRURITIC OR IRRITANT SKIN DISEASES” (AMOREPACIFIC CORPORATION, priority 2004, published 2008)

How the values were obtained:
Type in all cases: in vivo
BALB/C mice = assay: Itching induced by compound 48/80 (C48/80) in BALB/C mice, oral administration; details: for inhibitory effects on itching (in words): C48/80, BALB/C mice; for % Inhibition (mean ± SE): scratching frequency over 30 min, C48/80 1 h after dosing, BALB/C mice
Excerpt: Itching Induced by Compound 48/80 (C48/80) in BALB/C Mice
The frequency of scratching induced by an itching-inducing substance varies depending on mouse strain. For example, it was reported that BALB/C mice are less sensitive to histamines and serotonin than ICR mice (Inagaki et al., 2001, Skin Pharmacol. Appl. Skin Physiol., 14, pp 87-96). […] In this experiment, BALB/C mice received C48/80 to induce itching. One day before the experiment, the rostral part of the skin on the back of BALB/C mice (19˜21 g, 6˜12 mice/group) was clipped. After compound 1 was dissolved in HP-β-CD, and compounds 2 and 3 were dissolved in a physiological saline solution containing 10% ethanol and 10% Tween 80, the solutions were orally administered (10 ml/kg) to the mice. One hour after the administration, C48/80 (50 μg/50 μl/mouse) was dissolved in a physiological saline solution and injected intradermally into the back skin of mice. Immediately after the injection, the mice were housed in a transparent cage and then the frequency of scratching of the injected site by the hind paws was counted for 30 minutes. The frequency of scratching in test groups administered with the drugs was compared to that in a control group administered with C48/80 alone. The decrease in the frequency of scratching in the test groups was determined as an index of inhibitory effects on itching. The decrease in the frequency of scratching was expressed as a percentage of inhibition to determine inhibitory effects of each compound on itching.

ICR mice [1] = assay: Itching induced by histamine in ICR mice, oral administration; details: for antipruritic effects (in words): histamine; for % Inhibition (mean ± SE): scratching frequency over 30 min, histamine 100 nmol/mouse i.d. 1 h after dosing
Excerpt: Itching Induced by Histamine in ICR Mice
It is known that the itching response induced by histamine in rodents is generally weaker than that in humans (Kuraishi et al., 1995, Eur. J. Pharmacol. 275, pp 229-233). However, it is known that uniquely, ICR mice sensitively respond to histamine, and this leads to itching response (Maekawa et al., 2000, Jpn. J. Pharmacol. 84, pp 462-466). As is widely known, histamines are representative itching mediators and obviously induce itching in human subjects (Simone et al., 1987, Somatosens. Res. 5, pp 81-92). In this experiment, ICR mice received […]. One day before the experiment, the rostral part of the skin on the back of male ICR mice (28˜32 g, 5˜8 mice/group was clipped. The mice were fasted for 18 hours before experimentation. The drug (compound 1, 0.5 ml/mouse) was dissolved in hydroxypropyl-β-cyclodextrin (HP-β-CD; Mitsubishi Ltd., Japan), and then orally administered to the mice. One hour after the administration, histamine (100 nmol/50 μl/mouse) was dissolved in a physiological saline solution and injected intradermally into the back skin of mice. Immediately after the injection, the mice were placed in a transparent cage, and then the frequency of scratching of the injected site by the hind paws was counted for 30 minutes. The frequency of scratching in test groups administered with the drug was compared to that in a control group administered with histamine alone. The decrease in the frequency of scratching in the test groups was determined as an index of inhibitory effects on itching. The decrease in the frequency of scratching was expressed as a percentage of inhibition to determine inhibitory effects of each compound on itching.

ICR mice [2] = assay: Itching induced by compound 48/80 (C48/80) in ICR mice, intradermal administration; details: for inhibitory effects on itching (in words): C48/80, ICR mice; for % Inhibition (mean ± SE): scratching frequency over 60 min, C48/80 50 μg/mouse i.d., ICR mice
Excerpt: Itching Induced by Compound 48/80 (C48/80) in ICR Mice
Intradermal Administration
ICR mice suffer from itching upon administration of histamines, and C48/80 (condensation product of N-methyl-p-methoxyphenethylamine with formaldehyde, Sigma, U.S.A.) is a substance that stimulates connective tissues and skin mast cells to release mediators, such as histamines, causing itching. C48/80 causes itching when intradermally administered to humans (Rukwied et al., 2000, Br. J. Pharmacol., 142, pp 1114-1120). In this experiment, ICR mice received C48/80 to induce itching. One day before the experiment, the rostral part of the skin on the back of male ICR mice (28˜32 g, 4˜11 mice/group) was clipped. After the drug (compound 1, 50 μl/mouse) was dissolved in hydroxypropyl-β-cyclodextrin (HP-β-CD; Mitsubishi Ltd., Japan) and C48/80 (50 μg/50 μl/mouse) was dissolved in a physiological saline solution, the solutions were simultaneously injected intradermally into the back skin of mice. Immediately after the injection, the mice were placed in a transparent cage and then the frequency of scratching of the injected site by the hind paws was counted for 60 minutes. The frequency of scratching in test groups administered with the drug was compared to that in a control group administered with C48/80 alone. The decrease in the frequency of scratching in the test groups was determined as an index of inhibitory effects on itching. The decrease in the frequency of scratching was expressed as a percentage of inhibition to determine inhibitory effects of each compound on itching.

ICR mice [3] = assay: Inhibition of skin irritation induced by tacrolimus in ICR mice; details: intradermal; for % Inhibition (mean ± SE): scratching frequency over 30 min, tacrolimus 50 μg/mouse i.d.
Excerpt: Inhibition of Skin Irritation Induced by Tacrolimus in ICR Mice
Subcutaneous Administration
Tacrolimus is an immunosuppressant widely used in liver and renal transplantation (Lawrence, 1998, Dermatol. Ther., 5, pp 74-84). Tacrolimus is currently used in the form of ointment for treating skin diseases, such as atopic dermatitis (Wollenberg et al., 2001, J. Allergy. Clin. Immunol., 107, pp 519-525), psoriasis (Nasr, 2000, Clin. Exp. Dermatol., 25, pp 250-254), allergic contact dermatitis (Lauerma et al., 1992, Lancet, 340, p 556), and the like. However, it was reported that tacrolimus enhances irritation in human models with irritant contact dermatitis (Fuchs et al., 2002, Contact dermatitis, 46, pp 290-294). It was reported that tacrolimus causes side effects, such as skin irritation, itching and erythema, in its initial stage of use (Gupta et al., 2002, JEADV, 16, pp 100-114; Gupta and Chow, 2003, JEADV, 17, pp 493-503). No experimental model of skin irritation by tacrolimus in animal experiments is currently known. Accordingly, tacrolimus as a skin-irritant substance was directly injected to ICR mice by intradermal injection, and then scratching behavior of the mice was observed. One day before the experiment, the rostral part of the skin on the back male ICR mice (30˜33 g, 10 mice/group) was clipped. After the drug (compound 1, 50 μl/mouse) was dissolved in 28% hydroxypropyl-β-cyclodextrin (HP-β-CD; Mitsubishi Ltd., Japan) and tacrolimus (50 μg/50 μl/mouse, Cipla, India) was dissolved in a physiological saline solution containing 5% ethanol and 5% Tween 80, the solutions were simultaneously injected intradermally into the back skin of mice. Immediately after the injection, the mice were placed in a transparent cage and then the frequency of scratching of the injected site by the hind paws was counted for 30 minutes. The frequency of scratching in test groups administered with the drug was compared to that in a group administered with tacrolimus alone. […] The decrease in the frequency of scratching was expressed as a percentage of inhibition to determine inhibitory effects of each compound on skin irritation.

[4] = test system: New Zealand white rabbits; assay: Inhibition of skin irritation induced by retinoic acid in New Zealand white rabbits, topical administration
Excerpt: Inhibition of Skin Irritation Induced by Retinoic Acid in New Zealand White Rabbits
However, it is known that retinoic acid causes irritation in its initial stage of use and further causes side effects, such as skin erythema and edema, when topically applied to the skin (Varani et al., 2003, Arch. Dermatol. Res., 295, pp 255-262). A number of attempts to reduce the skin irritation induced by retinoic acid have been made in many directions (Kim et al., 2003, Toxicol. Letters., 146, pp 65-73). […] In this experiment, New Zealand white rabbits received retinoic acid to cause skin irritation. One day before the experiment, hairs around the back of four male New Zealand white rabbits (2.0˜2.5 kg) were shaved. Four application sites, which are symmetrical by two (i.e. right upper-site-left upper site and right lower site-left lower site), were marked at the shaved back of each rabbit. 100 μl of 0.025% retinoic acid (Sigma, U.S.A.) was topically applied to all four-application sites. 30 minutes after the application, the two sites marked at the right were treated with the drug (compound 1, 1%/100 μl/each application site), and the two sites marked at the left were treated with a solvent (100 μl/each application site) alone. At this time, retinoic acid and the drug were dissolved in a mixed solution of PEG 400 and ethanol (7:3), and then topically applied twice daily for four consecutive days. On the fifth day, the application sites were visually observed to evaluate the degree of skin irritation. The degree of skin irritation was expressed in a cumulative irritation index. […] The cumulative irritation index was judged based on occurrence of erythema, and scored in accordance with the following criteria: Occurrence of no erythema (0), occurrence of slightly visible erythema (1), occurrence of distinct erythema (2), occurrence of distinct scarlet erythema (3), and occurrence of distinct crimson erythema and scaling (4).

CN1CCC(=C2c3ccccc3CC(=O)c3sccc32)CC1 [Ketotifen, ketotifen, reference compound]
inhibitory effects on itching (in words) (BALB/C mice): no inhibitory effects on itching | % Inhibition (mean ± SE) (BALB/C mice; dose 10 mg): −24.91 ± 15.09%

CN1CCCC(n2nc(Cc3ccc(Cl)cc3)c3ccccc3c2=O)CC1 (centres unmarked) [Azelastine chloride, reference compound]
antipruritic effects (in words) (ICR mice [1]): potent antipruritic effects in a dose-dependent manner | % Inhibition (mean ± SE) (ICR mice [1]; dose 1 mg/mouse): 63.7 ± 26.6% | % Inhibition (mean ± SE) (ICR mice [1]; dose 10 mg/mouse): 91.7 ± 6.8%

CN(C)CCC(c1ccc(Cl)cc1)c1ccccn1 (centres unmarked) [chlorpheniramine, reference compound]
inhibitory effects on itching (in words) (BALB/C mice): no inhibitory effects on itching | % Inhibition (mean ± SE) (BALB/C mice; dose 3 mg): −22.90 ± 28.21% | inhibitory effects on itching (in words) (ICR mice [2]): no inhibitory effects on itching | % Inhibition (mean ± SE) (ICR mice [2]; dose 0.3 mg/mouse): −77.61 ± 70.54%

CC(C)(C)c1ccc(CNC(=S)NCc2ccc(NS(C)(=O)=O)c(F)c2)cc1 [Compound 1, 1-(4-t-butylbenzyl)-3-(3-fluoro-4-methanesulfonylaminobenzyl)thiourea]
% Inhibition (mean ± SE) (BALB/C mice; dose 3 mg): −22.90 ± 13.19% | % Inhibition (mean ± SE) (BALB/C mice; dose 10 mg): 42.24 ± 24.48% | % Inhibition (mean ± SE) (BALB/C mice; dose 30 mg): 42.97 ± 7.13% | % Inhibition (mean ± SE) (BALB/C mice; dose 100 mg): 54.11 ± 18.50% | % Inhibition (mean ± SE) (ICR mice [3]; dose 0.1 mg/mouse): 33.74 ± 37.73% | % Inhibition (mean ± SE) (ICR mice [3]; dose 0.3 mg/mouse): 52.03 ± 24.14% | % Inhibition (mean ± SE) (ICR mice [3]; dose 1 mg/mouse): 106.91 ± 30.13% | inhibitory effects on skin irritation (in words) (ICR mice [3]; tacrolimus): inhibitory effects on skin irritation in a dose-dependent manner | % Inhibition (mean) ([4]; decrease in cumulative irritation index vs retinoic acid + solvent, compound 1%, 100 μl/application site, topical, rabbits): 40% | Cumulative irritation index (mean ± SE) ([4]; erythema score 0-4 on fifth day, retinoic acid 0.025% + compound 1%, 100 μl/application site, topical twice daily for four days, rabbits): 1.88 ± 0.45 | inhibitory effects on skin irritation (in words) ([4]; retinoic acid, New Zealand white rabbits, topical): inhibitory effects on skin irritation | antipruritic effects (in words) (ICR mice [1]): potent anti-pruritic effects in a dose-dependent manner | % Inhibition (mean ± SE) (ICR mice [1]; dose 10 mg/mouse): 39.8 ± 18.1% | % Inhibition (mean ± SE) (ICR mice [1]; dose 30 mg/mouse): 46.7 ± 24.0% | % Inhibition (mean ± SE) (ICR mice [1]; dose 100 mg/mouse): 75.8 ± 26.9% | inhibitory effects on itching (in words) (ICR mice [2]): potent antipruritic effects in a dose-dependent manner | % Inhibition (mean ± SE) (ICR mice [2]; dose 0.03 mg/mouse): −6.51 ± 17.39% | % Inhibition (mean ± SE) (ICR mice [2]; dose 0.1 mg/mouse): 36.96 ± 13.44% | % Inhibition (mean ± SE) (ICR mice [2]; dose 0.3 mg/mouse): 44.11 ± 10.36% | % Inhibition (mean ± SE) (ICR mice [2]; dose 1 mg/mouse): 69.03 ± 7.76%

Cc1cc(CNC(=S)NCc2ccc(C(C)(C)C)cc2)ccc1NS(C)(=O)=O [Compound 3, 1-(4-t-butylbenzyl)-3-(3-methyl-4-methanesulfonylaminobenzyl)thiourea]
% Inhibition (mean ± SE) (BALB/C mice; dose 3 mg): 8.21 ± 5.82% | % Inhibition (mean ± SE) (BALB/C mice; dose 10 mg): 11.78 ± 15.26% | % Inhibition (mean ± SE) (BALB/C mice; dose 30 mg): 38.76 ± 7.77%

CC(C)(C)c1ccc(CNC(=S)NCc2ccc(NS(C)(=O)=O)c(Cl)c2)cc1 [Compound 2, 1-(4-t-butylbenzyl)-3-(3-chloro-4-methanesulfonylaminobenzyl)thiourea]
% Inhibition (mean ± SE) (BALB/C mice; dose 3 mg): 0.89 ± 7.23% | % Inhibition (mean ± SE) (BALB/C mice; dose 10 mg): 7.42 ± 10.43% | % Inhibition (mean ± SE) (BALB/C mice; dose 30 mg): 44.53 ± 11.07%
